These results are taken from paper PMC10893631, “Receptor-based pharmacophore modeling, molecular docking, synthesis and biological evaluation of novel VEGFR-2, FGFR-1, and BRAF multi-kinase inhibitors” (BMC Chemistry, 2024).

Common to all, as to assay: NCI SRB growth inhibition (single dose 10 µM / five-dose)
Assay type in all cases: cell-based, human

The subject of experiment [1] is CAKI-1. To be noted: Homo sapiens; CAKI-1 (Renal cancer), 10 µM; read-out: GI%. The method, boiled down:
(§1)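 Cytotoxicity in the NCI panel of sixty human tumour lines was measured by sulforhodamine B protein staining. Each agent was tested in DMSO-derived dilutions at five concentrations, and TGI was read where treated absorbance equalled time-zero absorbance.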

For experiment [2], the system named is HL-60(TB). To be noted: Homo sapiens; HL-60(TB) (Leukemia), 10 µM; read-out: GI%. The method, boiled down: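 Percent growth relative to untreated control and time-zero cell mass, determined by SRB. Five drug levels (10-fold or half-log steps) plus control; time-zero plates fixed 24 h after seeding.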
In experiment [3] the test system is DU-145. The note with it: Homo sapiens; DU-145 (Prostate cancer), 10 µM; read-out: GI%. The method, boiled down:
as §1

In experiment [4] the test system is SK-MEL-5. To be noted: Homo sapiens; SK-MEL-5 (Melanoma), 10 µM; read-out: GI%. The method, boiled down:
as §1

Experiment [5] relates to HOP-62. To be noted: Homo sapiens; HOP-62 (Non-small cell lung cancer), 10 µM; read-out: GI%. The method, boiled down:
as §1

For experiment [6], the system named is MDA-MB-468. The note with it: Homo sapiens; MDA-MB-468 (Breast cancer), 10 µM; read-out: GI%. The method, boiled down:
as §1

Experiment [7] has as its system RXF 393. The note with it: Homo sapiens; RXF 393 (Renal cancer), 10 µM; read-out: GI%. The method, boiled down: as §1
Experiment [8] concerns SR. The note with it: Homo sapiens; SR (Leukemia), 10 µM; read-out: GI%. The method, boiled down:
as §1

Experiment [9] relates to SF-539. To be noted: Homo sapiens; SF-539 (CNS cancer), 10 µM; read-out: GI%. The method, boiled down: as §1
Experiment [10] relates to SF-268. To be noted: Homo sapiens; SF-268 (CNS cancer), 10 µM; read-out: GI%. The method, boiled down: as §1
For experiment [11], the system named is KM12. The note with it: Homo sapiens; KM12 (Colon cancer), 10 µM; read-out: GI%. The method, boiled down:
as §1

The subject of experiment [12] is MDA-MB-435. The note with it: Homo sapiens; MDA-MB-435 (Melanoma), 10 µM; read-out: GI%. The method, boiled down:
as §1

Experiment [13] deals with SNB-75. The note with it: Homo sapiens; SNB-75 (CNS cancer), 10 µM; read-out: GI%. The method, boiled down: as §1
For experiment [14], the system named is LOX IMVI. The note with it: Homo sapiens; LOX IMVI (Melanoma), 10 µM; read-out: GI%. The method, boiled down: as §1
The test system of experiment [15] is 786–0. The note with it: Homo sapiens; 786–0 (Renal cancer), 10 µM; read-out: GI%. The method, boiled down: as §1
For experiment [16], the system named is BT-549. To be noted: Homo sapiens; BT-549 (Breast cancer), 10 µM; read-out: GI%. The method, boiled down:
as §1

In experiment [17] the test system is MDA-MB-231/ATCC. To be noted: Homo sapiens; MDA-MB-231/ATCC (Breast cancer), 10 µM; read-out: GI%. The method, boiled down:
as §1

The test system of experiment [18] is HT29. To be noted: Homo sapiens, HT-29; HT29 (Colon cancer), 10 µM; read-out: GI%. The method, boiled down: as §1
The subject of experiment [19] is HCT-15. The note with it: Homo sapiens; HCT-15 (Colon cancer), 10 µM; read-out: GI%. The method, boiled down:
as §1

For experiment [20], the system named is SK-OV-3. The note with it: Homo sapiens; SK-OV-3 (Ovarian cancer), 10 µM; read-out: GI%. The method, boiled down: as §1
Experiment [21] deals with SNB-19. To be noted: Homo sapiens; SNB-19 (CNS cancer), 10 µM; read-out: GI%. The method, boiled down:
as §1

Experiment [22] concerns NCI-H522. To be noted: Homo sapiens; NCI-H522 (Non-small cell lung cancer), 10 µM; read-out: GI%. The method, boiled down: as §1
For experiment [23], the system named is NCI/ADR-RES. To be noted: Homo sapiens; NCI/ADR-RES (Ovarian cancer), 10 µM; read-out: GI%. The method, boiled down: as §1

SMILES strings stand for the structures. Some results are limits rather than exact numbers.

In the case of `O=C(NN=Cc1cccc(O)c1)c1ccc2[nH]c(-c3ccccc3)nc2c1` [8b, N'-(3-Hydroxybenzylidene)-2-phenyl-1H-benzo[d]imidazole-5-carbohydrazide], the inhibition at 10 µM in experiment [1] is 9.41%; in [2], 14.4%; in experiment [3] it was under 5%; in experiment [4], 10.9%; in experiment [5], 19.3%; in experiment [6] it was 18.9%. Also, the inhibition at 10 µM in experiment [7] was under 5%; in experiment [8], 36.8%; in experiment [9], 13.7%; in experiment [10] it was 16.8%; in [11], 19.8%; in experiment [12], 5.45%. Besides, the inhibition at 10 µM in experiment [13] is 6.56%; in experiment [14], 7.43%; in [15], 5.43%; in experiment [16] it was under 5%; in [17], 14.1%; in [18], 16.4%. For the same compound, the inhibition at 10 µM in experiment [19] was under 5%; in [20], 25.6%; in [21], under 5%; in [22] it was 38.1%; in experiment [23], under 5%.
Regarding `COc1ccc(OC)c(C=NNC(=O)c2ccc3[nH]c(-c4ccccc4)nc3c2)c1` [8f, N'-(2,5-Dimethoxybenzylidene)-2-phenyl-1H-benzo[d]imidazole-5-carbohydrazide], the inhibition at 10 µM is 41.5% in experiment [1]; 36.3% in [2]; 18.4% in [3]; 67.8% in experiment [4]; 24.7% in experiment [6]; 50% in experiment [7]. The inhibition at 10 µM is 36.3% in [8]; 36.9% in experiment [9]; 36.6% in experiment [10]; 30.5% in [11]; 73.7% in experiment [12]; under 5% in experiment [13]. For the same compound, the inhibition at 10 µM in experiment [14] came out at 62.5%; in [15] it was 18.6%; in experiment [16], 38.2%; in experiment [17], 38%; in experiment [18], 14.7%; in experiment [19], 65.2%. Moreover, the inhibition at 10 µM was 21.4% in experiment [21], 37.8% in experiment [22] and 24.5% in experiment [23].
On to `COc1cc(C=NNC(=O)c2ccc3[nH]c(-c4ccccc4)nc3c2)cc(OC)c1OC` [8g, 2-Phenyl-N'-(3,4,5-trimethoxybenzylidene)-1H-benzo[d]imidazole-5-carbohydrazide], for which the inhibition at 10 µM in experiment [1] was determined as 49.7%; in experiment [2] it was 17.1%; in experiment [3] it was 17.1%; in experiment [4] it was 89.3%; in [6], 39.2%; in experiment [7], 30.8%. Further, the inhibition at 10 µM was 17.6% in experiment [8]; 49.8% in experiment [9]; 32% in [10]; 36.4% in [11]; 48.5% in [12]; under 5% in experiment [13]. Besides, the inhibition at 10 µM is 56.5% in experiment [14]; 27.8% in [15]; 35.4% in experiment [16]; 30.5% in experiment [17]; 47.3% in [18]; 38.4% in [19]. Besides, the inhibition at 10 µM was 25.2% in experiment [21], 50.7% in [22] and under 5% in experiment [23].
With `COc1ccc(-c2nc3cc(C(=O)NN=Cc4cc(OC)c(OC)c(OC)c4)ccc3[nH]2)cc1` [8n, 2-(4-Methoxyphenyl)-N'-(3,4,5-trimethoxybenzylidene)-1H-benzo[d]imidazole-5-carbohydrazide], the inhibition at 10 µM is 23.8% in experiment [1]; under 5% in experiment [2]; under 5% in [3]; 42.6% in experiment [4]; 14.6% in experiment [5]; under 5% in experiment [6]. Besides, the inhibition at 10 µM in [7] came out at 20.1%; in experiment [8], 26.9%; in experiment [9] it was 24.4%; in experiment [10], 21%; in experiment [11] it was 13.8%; in experiment [12], 25%. Moreover, the inhibition at 10 µM was under 5% in experiment [13]; 7.53% in experiment [14]; under 5% in experiment [15]; under 5% in experiment [16]; 7.37% in experiment [17]; under 5% in experiment [19]. For the same compound, the inhibition at 10 µM in [20] was 20.2%; in experiment [21] it was 36.2%; in experiment [22], 96.2%; in experiment [23] it was under 5%.
Take `O=C(NN=Cc1cccc(O)c1)c1ccc2[nH]c(-c3ccc(Cl)cc3)nc2c1` [8p, 2-(4-Chlorophenyl)-N'-(3-hydroxybenzylidene)-1H-benzo[d]imidazole-5-carbohydrazide]: the inhibition at 10 µM in [1] is under 5%; in [2] it was under 5%; in [3], under 5%; in [4], 69.5%; in [5] it was 32.5%; in [6], 65.8%. For the same compound, the inhibition at 10 µM stood at 31.6% in experiment [7]; 26.4% in [8]; 32.4% in experiment [9]; 24.2% in [10]; 62.7% in experiment [11]; 15.2% in experiment [12]. For the same compound, the inhibition at 10 µM in experiment [13] was 7.89%; in experiment [14], 14.7%; in [15], 22.2%; in experiment [16] it was under 5%; in experiment [17], 45.2%; in experiment [18] it was 19.9%. Further, the inhibition at 10 µM in experiment [19] was under 5%; in experiment [20] it was 36.2%; in experiment [22], 55.8%; in experiment [23], under 5%.
For the compound `COc1ccc(C=NNC(=O)c2ccc3[nH]c(-c4ccc(Cl)cc4)nc3c2)cc1O` [8s, 2-(4-Chlorophenyl)-N'-(3-hydroxy-4-methoxybenzylidene)-1H-benzo[d]imidazole-5-carbohydrazide], the inhibition at 10 µM in experiment [1] came out at 18.5%; in [2] it was 45.3%; in experiment [3], 16.2%; in experiment [4] it was 53.3%; in [6] it was 88.7%; in experiment [7] it was 69.1%. The inhibition at 10 µM was determined as 77.2% in experiment [8]; 47.2% in experiment [9]; 72.7% in experiment [10]; 68.4% in [11]; 89.9% in experiment [12]; 6.41% in experiment [13]. For the same compound, the inhibition at 10 µM was 44.9% in experiment [14]; 52% in [15]; 42.9% in [16]; 75.1% in experiment [17]; over 100% in experiment [18]; 23.3% in experiment [19]. Moreover, the inhibition at 10 µM in experiment [21] was 39.7%; in [22], 30.9%; in experiment [23], under 5%.
